“Also recorded” adds a separate entry of the source.
Key:
[1] = tested on: ΔF508-CFTR; assay: Western blot of mature CFTR in CFPAC cells; assay type: cell-based, human; settings: thapsigargin treatment as in Example 3
Procedure: Materials and Methods. CFPAC cells were grown to confluence in 10 cm^2 plates (Corning Costar, Cambridge, Mass.). Following thapsigargin treatment performed as described in Example 3, cells were harvested by scraping in PBS, lysed by sonication, and a crude membrane pellet was recovered by centrifugation at 50,000×g for 2 hrs. Electrophoresis and Western blotting were performed as described (Gottardi, C. J. and Caplan, M. J., J. Cell. Biol. 121, 283 (1993)). CFTR protein was detected using an antibody directed against the CFTR nucleotide binding domain 1 (Catalog number 05585, clone L12B4) from Upstate Biotechnology (Lake Placid N.Y.).

[2] = tested on: ΔF508 CFTR mice; assay: Nasal potential difference (NPD) in CF mice homozygous for the ΔF508 mutation; assay type: in vivo; settings: nebulized 1 μM thapsigargin or 50 microM curcumin, 3 hours/day for 7-14 days
Text: Materials and Methods. CF mice, which were the kind gift of Mitch Drumm, have had the ΔF508 mutation introduced into their endogenous copies of the CFTR gene by homologous recombination and are homozygous for the ΔF508 mutation. Construction of these mice is described in Zeiher, G. B., et al., A mouse model for the delta F508 allele of cystic fibrosis. J. Clin. Invest. 96: 2051-2064, 1995, and additional studies of these mice are described in Steagall W K and Drumm M L, Stimulation of cystic fibrosis transmembrane conductance regulator-dependent short-circuit currents across Delta F508 murine intestines. Gastroenterology, 116(6):1379-88, 1999.
Nasal potential difference was measured essentially as described in Grubb, B. R., Vick, R. N., and Boucher, R. C., Hyperabsorption of Na^+ and raised Ca^2+-mediated Cl^− secretion in nasal epithelia of CF mice, Am. […]
After obtaining a stable baseline reading, infusion of Ringers solution was begun, and recording was initiated. After 5 mins of stable reading, the solution was changed successively to: (i) Ringer solution containing amiloride 10^−5 M; (ii) Ringer solution containing 0 mM chloride and 10^−5 M amiloride; (iii) Ringer solution containing 0 mM chloride, 10^−5 M amiloride, and 10^−5 M isoproterenol. NPD was recorded for each solution for 5 minutes of stable values. […]

Structure (SMILES): C/C=C(/C)C(=O)O[C@H]1C(C)=C2[C@H]([C@@H]1OC(=O)CCCCCCC)[C@@](C)(OC(C)=O)C[C@H](OC(=O)CCC)[C@@]1(O)[C@H]2OC(=O)[C@@]1(C)O [thapsigargin]
- mature CFTR in lysates [1]: contained the ˜170 kDa mature form of the ΔF508CFTR protein
- basal NPD of treated ΔF508 CF mice [2]: markedly reduced relative to that in untreated CF mice; also recorded: dramatically reduce the basal NPD; also recorded: significantly smaller baseline NPD

Source: patent publication US8058314B2, “Conductance of improperly folded proteins through the secretory pathway and related methods for treating disease” (Yale University, priority 1999, dated 2011)
